Experimental data from patent US20230139883A1, “Peptides for Inducing Differentiation” (Shimadzu Corporation, priority 2020, published 2023).

How the values were obtained:
FGFR2 = assay: Yeast display screening (MACS/FACS) against FGFR2 with Sanger sequencing of single colonies; format: binding; settings: frequency of the clone among randomly selected single colonies after FGFR2 screening
Procedure: Cells were then charged to an LS column attached to a magnetic stand. In order to remove yeast cells not bound to FGFR2, 7 mL of PBSM was flowed through the LS column twice. The LS column was then removed from the magnetic stand and FGFR2-binding yeast clones were collected by flowing SDCAA medium and cultured. The above operations were deemed as one round, and a total of three rounds were performed (Table 10). Next, yeast clones with high binding activity were screened from the yeast collected by MACS, using FACS (Fluorescence-activated cell sorting). FGFR2-Fc and mouse anti-FLAG antibodies were bound to the yeast library, followed by binding of anti-mouse IgG-Alexa488 and anti-human Fc antibody-Alexa647. […] The binding of the peptide to FGFR2 can also be detected by the fluorescence intensity of Alexa647. With that, yeast clones with high fluorescence intensities of Alexa488 and Alexa647 were collected by FACS cell sorter (BD FACS AriaIII).
The phage library eluted after panning of Example 7 (Table 9: Input phage (Round 4)) was subjected to Human IgG Fc-immobilized plate, and negative selection was performed by collecting unbound phages. The phage library was then acted to FGFR3 prepared to concentrations of 100 nM, 10 nM, and 1 nM. Bound phages were then collected. The genomic DNA of the collected phages was extracted, samples were prepared according to Illumina's protocol for Miseq, and a comprehensive analysis of the phage genomic DNA was performed. Among the sequences obtained, 20 sequences high incidence rates were selected (Table 11). The yeast cells acquired in the screening of Example 8 were seeded onto SDCAA agar plates and cultured. Fourteen single colonies formed on the agar plates were randomly selected, and for each clone, the peptide DNA sequence incorporated into the yeast expression plasmid was analyzed using the Sanger method (Table 12).

iPS-hFB [1] = assay: Differentiation induction of iPS cells into cardiomyocytes: RT-qPCR of cardiomyocyte markers cTNT and Actinin; settings: Day 23; for gene expression levels (cTNT, ACTN2): Example 4: peptide in combination with bFGF, compared to conventional protocol 1
FGFR = assay: Binding to FGFR by surface plasmon resonance (Biacore T200); settings: SPR, 25° C., FGFR1, FGFR2 or FGFR3 immobilized (FIG. 4)
Text: One clone was selected from the amino acid sequences of the clones obtained above, and the peptide of 100nX (X is 9: SEQ ID NO: 9, the same shall apply hereinafter.) was synthesized. The peptide was synthesized based on the Fmoc solid-phase synthesis method. To measure the binding activity of the peptides, according to the operation manual of the SPR instrument Biacore T200 (GE Healthcare), FGFR1 was immobilized as a ligand to the instrument's sensor chip CMS using the amine coupling method. In addition, to confirm binding to other FGFR species, FGFR2 or FGFR3-immobilized sensor chips were also prepared. Ethanolamine was immobilized as a reference, and the samples were measured as analyte.
All measurements were performed at 25° C. and HBS-EP+ was used as the running buffer. After injecting the running buffer dissolving the peptide into the CMS sensor chip immobilized with various FGFRs (flow rate 30 μl/min, 2 min), the peptide was dissociated by flowing the running buffer for 3 min. The obtained sensorgram was directly curve-fitted with the reaction equation, and the rate constant was calculated by a nonlinear least-squares method. Dissociation constants were calculated by kinetic analysis using Biacore T200 Evaluation Software (GE Healthcare). A 1:1 binding model was used in the analysis.

FGFR1 = assay: Phage display selection against FGFR1 with Miseq analysis of the bound phages; format: binding
Procedure: The collected phage library was mixed with 100 nM of FGFR3 solution and allowed to react overnight at 4° C. (Table 5: Panning Round 1). After the reaction, the binding phages were captured by magnetic beads modified with protein A, and washed three times with PBS-T, followed by eluting the bound phages with Gly-HCl (pH 2.0). After neutralizing with 2M Tris, the phages were infected to E. coli. After 4 hours of incubation, helper phages were added, and the E. coli were allowed to produce phages overnight. Next, phage solution was prepared from the culture supernatant. The prepared phage solution was mixed with FGFR3 solution and allowed to react overnight at 4° C. (Table 5: Panning Round 2). After the reaction, the bound phages were eluted. Phage solution prepared in the same way was mixed with FGFR3 solution and allowed to react at 4° C. for 1 hour (Table 5: Panning Round 3). After the reaction, the bound phages were eluted. This operation was repeated two more times, and after Panning Round 5, the bound phages were eluted. Note that as the rounds proceeded, the number of washes with PBS-T was increased. (Table 5). The titer of the Output phage in each round was also determined. The titer of phage was determined from the number of colonies obtained by incubating the E. coli TG1 strain contacted with the phage at 37° C. overnight. As shown in FIG. 3<Input phage (Round 5)>, the eluted phage library after panning was subjected to Human IgG Fc-immobilized plate, and negative selection was performed by collecting unbound phages. The phage library was then acted to FGFR1 prepared to concentrations of 100 nM, 10 nM, and 1 nM. Bound phages were then collected. The phagemid DNA of the collected phages was extracted, samples were prepared according to Illumina's protocol for Miseq, and a comprehensive analysis of the phagemid DNA was performed. Among the sequences obtained, 23 sequences with high incidence rates were selected (Table 6).

iPS-hFB [2] = format: cell-based
Procedure: An attempt to apply 100nX to a differentiation induction system from iPS cells to hepatocytes was made. […] Then, cells were seeded in 6-well plates at 1.5×10^5 cells/well. […] The medium was replaced on Day 3 using the same medium. The medium was removed on Day 5 and RPMI1640 supplemented with B-27 Plus Supplement (Thermo), 20 ng/mL BMP4, and 20 ng/mL bFGF was added at 2 mL/well (conventional protocol; FIG. 14, protocol 1). […] Further, as a control group, RPMI1640 supplemented with B-27 Plus Supplement (Thermo), and 20 ng/mL BMP4 was added at 2 mL/well (conventional protocol; FIG. 14, protocol 2). The medium was replaced on Day 8 using the same medium. In all conditions, the medium was removed on Day 10, and RPMI1640 supplemented with B-27 Plus Supplement (Thermo), and 20 ng/mL HGF was added at 2 mL/well. The medium was replaced on Day 12 and Day 14 using the same medium. The medium was exchanged with HCM BulletKit (Lonza) (containing HBM, Ascorbic Acid, BSA-FAF, Hydrocortisone, Transferin, GA-1000, and Insulin) on Day 15 at 2 mL/well. On Day 17 and Day 18, the medium was exchanged with the same medium.

iPS-hFB [3] = assay: CYP3A4 activity (luciferin-IPA) of hepatocytes induced to differentiate from iPS cells; format: cell-based; settings: Day 20, luminescence corrected by protein
Procedure: Differentiation of iPS cells was induced in the same manner as in Example 13. After the cells were washed with PBS on Day 20, the medium was exchanged with HCM BulletKit (Lonza) containing 3 μM luciferin-IPA at 1 mL/well. After 1 hour of reaction at 37° C., 100 μL of the supernatant was transferred to a 96-well white plate., and Luciferin Detection Reagent was added at 100 μL/well. After 20 minutes of reaction at room temperature, the luminescence was measured. The cells were also crushed and the luminescence value was corrected by quantifying proteins with TaKaRa BCA Protein Assay Kit (Takara Bio).

iPS-hFB [4] = assay: Differentiation induction of iPS cells into neurons: RT-qPCR of SYN1, MAP2 and Nr2f1; format: cell-based; settings: for Nr2f1 gene expression level: 0.25 nM peptide on Day 3, Day 35
Procedure: An attempt to apply 100nX to a differentiation induction system from iPS cells to neurons was made. […] A group in which G-MEM supplemented with 20% KSR (Thermo), 1xNEAA (Thermo), 0.1 mM 2-mercaptoethanol (Wako Pure Chemicals), 1 mM sodium pyruvate (Thermo), 20 μM Y27632 (Wako Pure Chemicals), 3 μM IWR-1-endo (Wako Pure Chemicals), 5 μM SB431542 (Wako Pure Chemicals) was added at 100 μL/well was prepared as a control group (FIG. 14, protocol 2). On Day 6, the entire medium was replaced with the medium of each condition containing no Y27632 (Wako Pure Chemicals). Likewise, the medium was exchanged at Day 10 and Day 14. The medium was removed on Day 18 and the cells added with DMEM/F12 (GlutaMax) (Thermo) containing 1% N-2 Supplement and 1% Chemically Defined Lipid Concentrate were transferred to EZSPHERE (AGC Technoglass) at 2 mL/well. On Day 21, 24, and 27, the medium was replaced with DMEM/F12 (GlutaMax) (Thermo) containing 1% N-2 Supplement. Further, On Day 30, and 33, the medium was replaced with DMEM/F12 (GlutaMax) (Thermo) containing 1% N-2 Supplement and 1% Chemically Defined Lipid Concentrate.

iPS-hFB [5] = assay: Differentiation induction of iPS cells into cardiomyocytes: observation of beating cell clusters; settings: Example 3: 0.05 μM peptide + Activin A on Day 1, no bFGF
[6] = 0.25 nM peptide, Day 35, compared to control protocol 2 (no bFGF)
[7] = Example 3, protocol 5, 0.05 μM, compared to protocols 1, 3, 4 or 6

CAHHLASLEYDLAILEGGDGGGG----HLARLKRQLAELKNAC [FGFR_Y16]
Frequency (FGFR2): 1

CARELQALLKELQALGGGGGGGG----KLLALFVKLYALRLAC [FGFR_Y02]
Frequency (FGFR2): 1

CAVELYALHRELYALYGGGGGGS----KLYALYLKLLALQLAC [FGFR_Y05]
Frequency (FGFR2): 1

CAKELLALKRELKALQGGGGGGG----KLRALQLKLYALLLAC [FGFR_Y11]
Frequency (FGFR2): 2

CALELLALRGELEALRGGGGGGG----KLGALHLKLFALQWAC [FGFR_Y08]
Frequency (FGFR2): 1

CAAELAALEAELAALEGGGGGGG----KLMDLHYQLYNLFIAC [FGFR_Y01]
Frequency (FGFR2): 1

CAAELAALEAELAALEGGGGGGG----FLRNLHIKLYLLQFAC [FGFR_Y07]
Frequency (FGFR2): 1

CARELRALRRELRALQGGGGGGG----KLHALHRKLFALMVAC [FGFR_Y06]
Frequency (FGFR2): 1

CAAELAALEAELAALEGPSRVGSRRRGKLNLLKYKLHGLKLAC [FGFR_Y13]
Frequency (FGFR2): 1

CARELQALGKELKALKGGGGGGG----KLRALQLKLYALQVAC [FGFR_Y10]
Frequency (FGFR2): 1

CAAELAALEAELAALEGVPGDNNGTRGKLYHLKNKLHRLKNAC [100n9]
gene expression levels (cTNT, ACTN2) (iPS-hFB [1]): significantly increased | binding affinity to the FGFR (FGFR): high binding affinity | 1 nM Num. of reads (FGFR1; phage library after panning Round 5, bound to 1 nM FGFR1): 6403 | 10 nM Num. of reads (FGFR1; phage library after panning Round 5, bound to 10 nM FGFR1): 7169 | 100 nM Num. of reads (FGFR1; phage library after panning Round 5, bound to 100 nM FGFR1): 6135 | 1 nM Ranking (FGFR1; rank by number of reads, 1 nM FGFR1): 4 | 10 nM Ranking (FGFR1; rank by number of reads, 10 nM FGFR1): 3 | 100 nM Ranking (FGFR1; rank by number of reads, 100 nM FGFR1): 3 | promotion of hepatic differentiation (iPS-hFB [2]): as effective as or better than conventional bFGF | CYP3A4 activity (iPS-hFB [3]; compared to control protocol 2 (BMP4)): significantly increased | CYP3A4 activity (iPS-hFB [3]; compared to conventional protocol 1 (BMP4, bFGF)): similar | Nr2f1 gene expression level (iPS-hFB [4]; compared to control protocol 2 (no bFGF)): significantly increased | Nr2f1 gene expression level (iPS-hFB [4]; compared to conventional protocol 1 (bFGF)): similar | MAP2 gene expression level (iPS-hFB [4]; [6]): tended to increase | SYN1 gene expression level (iPS-hFB [4]; [6]): tended to increase | promotion of / contribution to neural differentiation (iPS-hFB [4]; overall, relative to bFGF): as effective as conventional bFGF | day on which beating cell clusters were observed (iPS-hFB [5]): ≥ 16 days

CAQELRALLRELQALGGGGGGGG----KLGALVFKLYALMLAC [FGFR_Y15]
Frequency (FGFR2): 1

B1: 100nX-Dimer: a dimerized peptide of 100nX (SEQ ID NO: 9) (peptide)
chain 1: CAAELAALEAELAALEGVPGDNNGTRGKLYHLKNKLHRLKNAC
chain 2: CAAELAALEAELAALEGVPGDNNGTRGKLYHLKNKLHRLKNAC
modifications: dimerized
ACTN2 expression level (iPS-hFB [1]; [7]): significantly increased | cTNT expression level (iPS-hFB [1]; [7]): significantly increased | gene expression levels (cTNT, ACTN2) (iPS-hFB [1]): significantly increased | day on which beating cell clusters were observed (iPS-hFB [5]): 11 days
